Results reported in ChEMBL document CHEMBL5696441 (Nat Chem Biol, 2011).
pIC50: −log10 of the molar value. Active and inactive are the calls of the source. The rule behind the calls is not given here.

Columns and labels:
[1] = target: Serine/threonine-protein kinase 33 (Homo sapiens) (UniProt Q9BYT3); assay: Inhibition of human STK33 assessed as residual activity at 1 uM using RBER-CHKtide as substrate in presence of 33P-ATP by ProQinase assay relative to control
[2] = target: T1, Mitogen-activated protein kinase 12 (Homo sapiens) (UniProt P53778); assay: Inhibition of human P38gamma assessed as residual activity at 1 uM using RBER-IRStide as substrate in presence of 33P-ATP by ProQinase assay relative to control
T1 sequence (whole entry): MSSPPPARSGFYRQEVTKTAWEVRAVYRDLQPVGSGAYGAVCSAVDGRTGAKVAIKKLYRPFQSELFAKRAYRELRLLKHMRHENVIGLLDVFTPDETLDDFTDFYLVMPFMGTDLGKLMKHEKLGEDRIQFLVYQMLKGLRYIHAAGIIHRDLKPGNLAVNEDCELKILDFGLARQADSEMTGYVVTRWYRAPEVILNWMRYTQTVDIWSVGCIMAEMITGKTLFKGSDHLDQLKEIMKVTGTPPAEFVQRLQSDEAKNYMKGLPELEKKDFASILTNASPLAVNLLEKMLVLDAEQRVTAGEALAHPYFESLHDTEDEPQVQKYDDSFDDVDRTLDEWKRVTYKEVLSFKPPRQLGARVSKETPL

[3] = target: Protein-tyrosine kinase 2-beta (Homo sapiens) (UniProt Q14289); assay: Inhibition of human PYK2 assessed as residual activity at 1 uM using polyEY as substrate in presence of 33P-ATP by ProQinase assay relative to control
[4] = target: SRSF protein kinase 2 (Homo sapiens) (UniProt P78362); assay: Inhibition of human SRPK2 assessed as residual activity at 1 uM using MBP as substrate in presence of 33P-ATP by ProQinase assay relative to control
[5] = target: Serine/threonine-protein kinase TNNI3K (Homo sapiens) (UniProt Q59H18); assay: Inhibition of TNNI3K (unknown origin) assessed as remaining activity at 1 uM by Kinome scan method relative to control
Chain of Serine/threonine-protein kinase TNNI3K (Homo sapiens) (Q59H18 whole entry): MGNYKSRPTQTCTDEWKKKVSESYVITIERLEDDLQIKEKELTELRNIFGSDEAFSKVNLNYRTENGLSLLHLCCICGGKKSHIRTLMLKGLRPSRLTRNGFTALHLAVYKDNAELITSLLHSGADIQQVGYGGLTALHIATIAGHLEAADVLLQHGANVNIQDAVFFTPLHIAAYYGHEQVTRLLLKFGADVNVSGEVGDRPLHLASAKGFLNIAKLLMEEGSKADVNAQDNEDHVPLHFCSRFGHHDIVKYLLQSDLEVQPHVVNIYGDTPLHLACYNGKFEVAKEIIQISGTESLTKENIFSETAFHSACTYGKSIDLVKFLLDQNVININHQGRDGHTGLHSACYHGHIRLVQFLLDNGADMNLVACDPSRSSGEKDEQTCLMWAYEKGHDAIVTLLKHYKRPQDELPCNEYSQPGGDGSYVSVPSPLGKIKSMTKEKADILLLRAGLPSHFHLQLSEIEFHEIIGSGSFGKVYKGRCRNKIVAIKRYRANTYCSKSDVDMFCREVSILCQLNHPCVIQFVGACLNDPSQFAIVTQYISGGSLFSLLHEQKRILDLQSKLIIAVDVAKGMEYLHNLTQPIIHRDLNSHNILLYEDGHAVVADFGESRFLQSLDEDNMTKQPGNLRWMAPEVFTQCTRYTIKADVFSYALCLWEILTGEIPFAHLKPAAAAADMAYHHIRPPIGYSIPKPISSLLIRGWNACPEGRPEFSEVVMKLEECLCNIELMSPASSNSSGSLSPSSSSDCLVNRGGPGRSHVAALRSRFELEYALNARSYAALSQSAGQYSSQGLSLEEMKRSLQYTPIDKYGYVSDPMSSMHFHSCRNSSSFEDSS

[6] = target: Tyrosine-protein kinase Srms (Homo sapiens) (UniProt Q9H3Y6); assay: Inhibition of human SRMS assessed as residual activity at 1 uM using PolyEY as substrate in presence of 33P-ATP by ProQinase assay relative to control
Chain of Tyrosine-protein kinase Srms (Homo sapiens) (Q9H3Y6 whole entry): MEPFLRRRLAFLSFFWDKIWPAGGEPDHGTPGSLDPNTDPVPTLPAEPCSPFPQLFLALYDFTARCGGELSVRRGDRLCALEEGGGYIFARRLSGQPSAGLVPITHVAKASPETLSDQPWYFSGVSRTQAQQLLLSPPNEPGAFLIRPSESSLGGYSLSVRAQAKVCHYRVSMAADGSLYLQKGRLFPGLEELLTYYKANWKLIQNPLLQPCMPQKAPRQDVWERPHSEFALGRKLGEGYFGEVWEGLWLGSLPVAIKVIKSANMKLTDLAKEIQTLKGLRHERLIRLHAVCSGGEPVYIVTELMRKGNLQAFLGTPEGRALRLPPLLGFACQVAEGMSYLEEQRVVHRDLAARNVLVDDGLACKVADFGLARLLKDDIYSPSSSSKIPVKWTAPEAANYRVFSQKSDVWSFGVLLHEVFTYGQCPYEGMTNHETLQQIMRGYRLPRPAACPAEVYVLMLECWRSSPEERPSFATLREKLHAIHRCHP

[7] = system: Receptor-type tyrosine-protein kinase FLT3 (Homo sapiens), P36888 [D835Y]; assay: Inhibition of FLT3 D835Y mutant (unknown origin) assessed as remaining activity at 1 uM by Kinome scan method relative to control
[8] = target: T2, MAP kinase p38 (Homo sapiens) (UniProt O15264+Q15759+Q16539+P53778); assay: Inhibition of p38-MAPK in human HeLa cells assessed as reduction in HSP27 phosphorylation at Ser82 level at 50 nM incubated for 2 hrs in the presence of anisomycin stimulation for 40 mins by western blot analysis; assay type: cell-based
[9] = target: T2, MAP kinase p38 (Homo sapiens); assay: Inhibition of p38-MAPK in human THP-1 cells assessed as change in HSP27 phosphorylation at Ser82 level at 80 nM preincubated for 30 mins in the presence of TNFalpha stimulation for 20 mins by western blot analysis; assay type: cell-based
[10] = target: Calcium/calmodulin-dependent protein kinase type 1 (Homo sapiens) (UniProt Q14012); assay: Inhibition of CAMK1 (unknown origin) assessed as remaining activity at 1 uM by Kinome scan method relative to control
Chain of Calcium/calmodulin-dependent protein kinase type 1 (Homo sapiens) (Q14012 whole entry, looked up): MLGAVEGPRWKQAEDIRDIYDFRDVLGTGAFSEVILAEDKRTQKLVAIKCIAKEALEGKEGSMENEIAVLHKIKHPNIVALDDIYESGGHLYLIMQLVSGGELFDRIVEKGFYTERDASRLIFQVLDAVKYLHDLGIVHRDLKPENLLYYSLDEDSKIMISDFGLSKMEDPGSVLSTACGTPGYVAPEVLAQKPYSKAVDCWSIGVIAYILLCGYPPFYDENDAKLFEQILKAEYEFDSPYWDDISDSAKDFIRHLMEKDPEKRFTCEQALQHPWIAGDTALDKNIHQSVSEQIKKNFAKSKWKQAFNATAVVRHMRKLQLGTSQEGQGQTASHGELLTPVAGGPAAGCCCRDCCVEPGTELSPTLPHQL

[11] = target: Death-associated protein kinase 1 (Homo sapiens) (UniProt P53355); assay: Inhibition of human DAPK1 assessed as residual activity at 1 uM using RBER-GSK3 as substrate in presence of 33P-ATP by ProQinase assay relative to control
Chain of Death-associated protein kinase 1 (Homo sapiens) (P53355 whole entry, looked up): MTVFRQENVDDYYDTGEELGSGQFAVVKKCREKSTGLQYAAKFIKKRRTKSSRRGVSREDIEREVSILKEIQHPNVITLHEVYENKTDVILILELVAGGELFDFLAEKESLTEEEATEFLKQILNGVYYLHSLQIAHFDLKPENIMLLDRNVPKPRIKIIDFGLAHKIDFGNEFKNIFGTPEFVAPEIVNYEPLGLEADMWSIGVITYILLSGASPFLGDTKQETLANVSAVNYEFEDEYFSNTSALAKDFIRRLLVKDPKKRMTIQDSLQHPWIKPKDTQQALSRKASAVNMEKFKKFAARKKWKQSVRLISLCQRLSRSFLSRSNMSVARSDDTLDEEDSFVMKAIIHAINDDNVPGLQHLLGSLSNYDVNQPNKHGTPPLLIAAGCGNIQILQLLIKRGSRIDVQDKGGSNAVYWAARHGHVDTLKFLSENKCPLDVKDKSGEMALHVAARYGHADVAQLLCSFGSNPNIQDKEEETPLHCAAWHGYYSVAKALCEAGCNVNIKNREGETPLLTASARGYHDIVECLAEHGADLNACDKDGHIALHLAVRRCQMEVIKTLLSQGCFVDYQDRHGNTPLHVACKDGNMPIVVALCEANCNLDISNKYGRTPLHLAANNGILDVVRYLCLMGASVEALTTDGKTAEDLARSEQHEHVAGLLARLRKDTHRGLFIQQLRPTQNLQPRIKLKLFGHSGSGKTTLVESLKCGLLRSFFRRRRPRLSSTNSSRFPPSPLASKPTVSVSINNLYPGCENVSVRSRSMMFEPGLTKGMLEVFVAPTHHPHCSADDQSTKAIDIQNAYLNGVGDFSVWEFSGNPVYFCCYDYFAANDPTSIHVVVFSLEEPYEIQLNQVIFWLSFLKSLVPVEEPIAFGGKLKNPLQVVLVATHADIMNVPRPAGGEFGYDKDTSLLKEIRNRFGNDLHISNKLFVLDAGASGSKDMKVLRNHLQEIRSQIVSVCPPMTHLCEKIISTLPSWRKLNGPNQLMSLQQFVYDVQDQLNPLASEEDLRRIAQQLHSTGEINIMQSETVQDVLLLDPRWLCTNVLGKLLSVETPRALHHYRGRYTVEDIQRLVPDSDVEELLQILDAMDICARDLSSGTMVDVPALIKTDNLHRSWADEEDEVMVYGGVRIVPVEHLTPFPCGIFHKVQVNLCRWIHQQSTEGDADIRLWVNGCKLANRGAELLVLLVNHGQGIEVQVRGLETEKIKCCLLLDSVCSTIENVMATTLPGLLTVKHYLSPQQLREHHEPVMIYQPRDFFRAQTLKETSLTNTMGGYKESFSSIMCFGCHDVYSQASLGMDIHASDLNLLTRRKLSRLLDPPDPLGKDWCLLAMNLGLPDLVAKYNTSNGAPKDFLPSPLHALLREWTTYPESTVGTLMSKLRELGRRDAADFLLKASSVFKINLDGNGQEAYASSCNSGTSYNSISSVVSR

[12] = target: 5'-AMP-activated protein kinase catalytic subunit alpha-1 (Homo sapiens) (UniProt Q13131); assay: Inhibition of AMPK-alpha1 (unknown origin) assessed as remaining activity at 1 uM by Kinome scan method relative to control
[13] = target: Protein-tyrosine kinase 6 (Homo sapiens) (UniProt Q13882); assay: Inhibition of human BRK assessed as residual activity at 1 uM using PolyEY as substrate in presence of 33P-ATP by ProQinase assay relative to control
Chain of Protein-tyrosine kinase 6 (Homo sapiens) (Q13882 whole entry, looked up): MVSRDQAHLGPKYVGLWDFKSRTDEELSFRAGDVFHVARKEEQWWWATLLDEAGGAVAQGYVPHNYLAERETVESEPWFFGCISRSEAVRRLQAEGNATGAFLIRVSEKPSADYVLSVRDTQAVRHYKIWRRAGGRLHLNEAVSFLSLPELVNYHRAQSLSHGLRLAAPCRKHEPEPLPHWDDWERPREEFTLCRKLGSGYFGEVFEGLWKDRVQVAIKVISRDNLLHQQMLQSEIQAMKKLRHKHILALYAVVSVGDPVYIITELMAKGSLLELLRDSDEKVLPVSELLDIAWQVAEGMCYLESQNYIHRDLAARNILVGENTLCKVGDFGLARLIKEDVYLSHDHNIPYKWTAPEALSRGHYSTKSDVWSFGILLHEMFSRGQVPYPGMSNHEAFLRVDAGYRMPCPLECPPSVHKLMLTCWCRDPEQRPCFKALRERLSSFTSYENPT

[14] = target: RAC-beta serine/threonine-protein kinase (Homo sapiens) (UniProt P31751); assay: Inhibition of AKT2 (unknown origin) assessed as remaining activity at 1 uM by Kinome scan method relative to control
Chain of RAC-beta serine/threonine-protein kinase (Homo sapiens) (P31751 whole entry): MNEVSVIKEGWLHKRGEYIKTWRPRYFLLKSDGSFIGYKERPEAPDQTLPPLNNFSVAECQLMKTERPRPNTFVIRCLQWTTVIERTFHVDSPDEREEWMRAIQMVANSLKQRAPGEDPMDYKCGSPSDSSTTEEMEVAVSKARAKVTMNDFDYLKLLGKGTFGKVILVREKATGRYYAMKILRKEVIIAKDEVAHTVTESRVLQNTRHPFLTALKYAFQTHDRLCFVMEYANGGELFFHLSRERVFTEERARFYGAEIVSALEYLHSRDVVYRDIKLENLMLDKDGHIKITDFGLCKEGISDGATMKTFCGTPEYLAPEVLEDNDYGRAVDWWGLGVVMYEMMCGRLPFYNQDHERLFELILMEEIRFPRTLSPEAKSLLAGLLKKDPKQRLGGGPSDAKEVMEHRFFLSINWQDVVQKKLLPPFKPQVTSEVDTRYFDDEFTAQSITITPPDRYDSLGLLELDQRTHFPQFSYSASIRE

[15] = target: T3, Aurora kinase A (Homo sapiens) (UniProt O14965); assay: Inhibition of human AuroraA assessed as residual activity at 1 uM using bio-4xCHKT as substrate in presence of 33P-ATP by ProQinase assay relative to control
T3 sequence (whole entry): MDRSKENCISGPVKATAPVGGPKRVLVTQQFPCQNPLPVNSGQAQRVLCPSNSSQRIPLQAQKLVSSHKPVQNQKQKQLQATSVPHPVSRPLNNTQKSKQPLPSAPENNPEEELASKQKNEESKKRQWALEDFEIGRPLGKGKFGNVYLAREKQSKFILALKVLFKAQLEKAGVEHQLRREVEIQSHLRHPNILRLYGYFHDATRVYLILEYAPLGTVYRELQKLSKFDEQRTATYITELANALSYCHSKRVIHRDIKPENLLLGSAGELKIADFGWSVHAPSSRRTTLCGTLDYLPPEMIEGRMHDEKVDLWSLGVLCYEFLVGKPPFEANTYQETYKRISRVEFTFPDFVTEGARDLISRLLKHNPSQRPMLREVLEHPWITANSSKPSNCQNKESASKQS

[16] = target: Mitogen-activated protein kinase 1 (Homo sapiens) (UniProt P28482); assay: Inhibition of human ERK2 assessed as residual activity at 1 uM using RBER-CHKtide as substrate in presence of 33P-ATP by ProQinase assay relative to control
Chain of Mitogen-activated protein kinase 1 (Homo sapiens) (P28482 whole entry): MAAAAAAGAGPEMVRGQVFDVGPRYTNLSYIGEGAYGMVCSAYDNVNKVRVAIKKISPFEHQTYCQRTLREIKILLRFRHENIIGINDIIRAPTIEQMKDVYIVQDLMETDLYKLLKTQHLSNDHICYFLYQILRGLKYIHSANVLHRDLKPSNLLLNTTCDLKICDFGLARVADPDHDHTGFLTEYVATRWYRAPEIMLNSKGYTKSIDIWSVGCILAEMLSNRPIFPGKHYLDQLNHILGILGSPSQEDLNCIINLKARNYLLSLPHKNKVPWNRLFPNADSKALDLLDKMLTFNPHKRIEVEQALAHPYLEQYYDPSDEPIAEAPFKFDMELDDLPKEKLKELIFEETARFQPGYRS

[17] = Anti-inflammatory activity against human derived high respond PBMC cells assessed as inhibition in stimulated IL-17A cytokine release incubated for 2 hrs in the presence of LPS/SEB/aCD28 by Luminex based sandwich immunoassay; assay type: functional, cell-based
[18] = target: G protein-coupled receptor kinase 5 (Homo sapiens) (UniProt P34947); assay: Inhibition of human GRK5 assessed as residual activity at 1 uM using casein as substrate in presence of 33P-ATP by ProQinase assay relative to control
[19] = system: Hepatocyte growth factor receptor (Homo sapiens), P08581 [D1228N]; assay: Inhibition of human MET D1228N mutant assessed as residual activity at 1 uM using poly(Ala,Glu,Lys,Tyr)6:2:5:1 as substrate in presence of 33P-ATP by ProQinase assay relative to control
[20] = target: Ribosomal protein S6 kinase alpha-4 (Homo sapiens) (UniProt O75676); assay: Inhibition of human RPS6KA4 assessed as residual activity at 1 uM using RBER-CHKtide as substrate in presence of 33P-ATP by ProQinase assay relative to control
[21] = target: Dual specificity protein kinase CLK2 (Homo sapiens) (UniProt P49760); assay: Inhibition of human CLK2 assessed as residual activity at 1 uM using RBER-GSK3 as substrate in presence of 33P-ATP by ProQinase assay relative to control
Chain of Dual specificity protein kinase CLK2 (Homo sapiens) (P49760 whole entry, looked up): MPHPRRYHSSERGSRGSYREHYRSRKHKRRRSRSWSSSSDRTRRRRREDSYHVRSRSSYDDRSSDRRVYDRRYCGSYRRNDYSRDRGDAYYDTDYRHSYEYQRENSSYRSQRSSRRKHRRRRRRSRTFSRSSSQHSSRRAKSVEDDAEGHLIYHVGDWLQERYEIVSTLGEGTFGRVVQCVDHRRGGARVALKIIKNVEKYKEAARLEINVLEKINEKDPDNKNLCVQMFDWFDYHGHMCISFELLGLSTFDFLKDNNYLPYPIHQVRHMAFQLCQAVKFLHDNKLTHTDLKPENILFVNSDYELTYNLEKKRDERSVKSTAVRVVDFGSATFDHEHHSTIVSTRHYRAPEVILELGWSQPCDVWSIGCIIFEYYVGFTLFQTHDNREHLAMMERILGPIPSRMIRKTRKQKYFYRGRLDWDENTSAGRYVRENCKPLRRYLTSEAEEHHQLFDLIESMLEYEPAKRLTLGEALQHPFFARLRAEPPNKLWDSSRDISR

O=C1c2ccc(Nc3ccc(F)cc3F)cc2CCc2ccc(OC[C@H](O)CO)cc21 [Skepinone-L]
Activity [1]: 94%
Activity [2]: 102%
Activity [3]: 102%
Activity [4]: 101%
Activity [5]: 90%
Activity [6]: 95%
Activity [7]: 98%
inhibition [8]: Active
inhibition [9]: Active
Activity [10]: 100%
Activity [11]: 86%
Activity [12]: 98%
Activity [13]: 84%
Activity [14]: 90%
Activity [15]: 99%
Activity [16]: 83%
pIC50 [17]: 6.38
Activity [18]: 121%
Activity [19]: 95%
Activity [20]: 107%
Activity [21]: 89%
